Results on ten molecules are retold here after US8329141B2, “Locoregional internal radionuclide ablation of abnormal tissues” (Board of Regents, The University of Texas System, priority 2004, dated 2012).

The conditions of data set [1]: up to a 20 mg/kg systemic dose (Kalia; Mohanti et al.); cited from earlier work.
The test system of another data set is rat breast cancer. The note with it: systemic injection (Mortimer and Taylor; Moadel et al.); cited from earlier work.
The subject of data set [2] is rat mammary cancer 13762F tumor cells. Briefly: In vivo tumor growth after intratumoral injection of radiopharmaceuticals (rat mammary cancer model). Also on record: species or system Fischer 344 female rats. The note with it: for tumor growth / tumor development: 0.6 mCi intratumoral on day 10 in 0.1-0.2 ml saline (pH 4.5-6), FIG. 2. The procedure: The radionuclides YCl3, ^111In—Cl, and ^201Tl—Cl were obtained from a local supplier of radioisotopes, Iso-Tex Diagnostics (Friendswood, Tex.). YCl3 obtained from the supplier was in an acidic preparation with a pH of 2-3, and was subsequently diluted in saline to a final pH of about 4-6 before injection. Initial activities of ^111In—Cl and YCl3 were about 200-500 mCi/ml, and dilution were made with preservative-free saline. YIMA was prepared by co-precipitation, as set forth in U.S. Ser. No. 10/724,027. Briefly, 500 μl of FeCl3 (1 mg Fe/ml) was added to 30 μl of ^90Y chloride (20-40 μCi/30 μl), and either 30 μl of NaOH (1.0 N) or 10 μl of NH4OH (20.0%) was added to the solution to reach a pH of about 7.0 to 9.0. Co-precipitated YIMA radiopharmaceutical macroaggregates were then separated from remaining soluble radionuclides by centrifuging the reactions from 1500 RPM to 3000 RPM×5 minutes, and filtered using a Millipore Nylone (size: 0.45 μm, diameter: 13 mm) to isolate the radiopharmaceutical macroaggregates.
The rat model of in vivo tumor growth was generated as follows. On day zero, 100,000 rat mammary cancer 13762F tumor cells were implanted in a volume of 0.15 ml into the right thigh muscle of Fischer 344 female rats weighing approximately 160 grams. […] YIMA was injected in a volume of 0.2 ml on days 3-7 after tumor implantation. Tumor sizes and body weights of the rats were monitored regularly (5 times a week) for several weeks, or until the tumors grew beyond 2.5 cm, at which time the rats were euthanized.

Data set [3] is described as follows: In vivo local sequestration at the injection site by serial scintigrams (intramuscular or intratumoral injection). Further details: species or system Fischer rats. The note with it: for retention time with free iron / effect of free iron in the injectate on retention / local sequestration: admixture with FeCl3.6H2O; for retention time with free iron: intramuscular or intratumoral injection; for effect of free iron in the injectate on retention / local sequestration: 1 mg Fe in total injectate; for clearance after intramuscular injection: thigh muscle, after only 3 hours, negative control. The procedure: To further study the localization of unsealed radiopharmaceuticals after injection, in vivo imaging studies were carried out comparing ^111In DTPA (In-DTPA) (negative control) and Indium-111-Iron Macroaggregate (^111In-IMA) (positive control) to ^111In—Cl. ^111In emits gamma rays that can be detected using a gamma camera. ^111In-IMA was generated according to methods disclosed in U.S. Ser. No. 10/724,027, incorporated herein by reference. Each radiopharmaceutical was administered by intramuscular injection into the thigh muscle of Fischer rats which weighed approximately 200 grams. Two different doses of ^111In—Cl were administered to the rats, 0.4 and 0.8 mCi in 0.2 ml saline. Distribution of the ^111In—Cl was determined through serial scintigrams. […] In comparison, when ^111In-IMA was administered to rats, consistent retention (84%) of the ^111In-IMA was found 70 hours after administration (FIG. 8). Persistent intramuscular localization of ^111In—Cl was also found in rats for both dose levels of ^111In—Cl, with over 50% of the injected ^111In—Cl remaining in the injection site after three days.
To investigate whether the addition of free iron to radionuclides would increase the locoregional retention of various radionuclides, admixtures of ^67Ga-citrate, YCl3, or ^111In—Cl, were prepared with FeCl3.6H2O at 1-5 mg Fe/ml. Each radionuclide combination/admixture was administered either by intramuscular (IM) injection into the thigh muscle of the left leg (0.1-1.0 mCi) or by intratumoral (IT) injection into a tumor in the right leg (0.4-5.0 mCi) of Fischer rats. Distribution of the radionuclide was determined through serial scintigrams. Whole body images were acquired with a Siemens M-CAM camera using respective photo peaks of Ga-67, Tl-201 (for Y-90), or In-111, and 15-20% windows in photo energy. The typical imaging time was 0.5 to 5 minutes. A respective standard was present in the field of view (0.1-0.5 mCi), and used for image quantification by comparing images with the standard and normalizing the initial injection time as 100%. The Fe content in each combination/admixture was 1 mg in the total injectate.

The conditions of data set [4]: intravenous; four days after injection (Kutzner et al.); cited from earlier work.
For data set [5] the following is noted: cited from earlier work.
Data set [6] in a line: Biodistribution and projected human radiation dosimetry after intravenous or intramuscular injection. It is filed as in vivo, female Fisher rats. The note with it: for human dosimetry estimate, kidney / human dosimetry estimate, red marrow: from rat biodistribution. The protocol:
To evaluate the radiation toxicity of YCl3 after intravenous or intramuscular injection, parallel experiments were performed to evaluate the biodistribution and projected human radiation dosimetry of both ^111In—Cl and YCl3. The experiments used three female Fisher rats (140-160 grams) for each set of injections. Each rat was injected intravenously, or was injected intramuscularly in the right thigh, with 0.05 mCi of YCl3 or ^111In—Cl (with no carrier added) in 0.1 ml saline (pH 5-6). The effect of initial exposure of the radiopharmaceuticals to interstitial fluid was estimated by serum protein binding experiments using Millipore Centrifree filters as set forth in Example 2. Organs including the right and left femur, as well as the right and left thigh muscles, were harvested from each rat 7 days after injection. Human dosimetry for each radiopharmaceutical was constructed using established anthropomorphic models.

A further data set concerns serum proteins. Briefly: Binding to serum proteins (Centrifree filter separation). It is filed as in vitro ADME, human (patients). The note with it: 0.2, 0.5 or 1 μCi added to diluted serum protein, 20 minutes; physiologic range, all concentrations tested. The protocol:
To test the hypothesis that local sequestration of ^111In—Cl is due to protein binding, both ^111In—Cl and YCl3 were tested for binding to CSF and serum proteins. Serum proteins were obtained from residual baseline serum and CSF proteins were obtained from patients participating in other research protocols who had consented to blood sampling. To determine the level of ^111In—Cl protein binding, 0.2, 0.5, or 1 μCi of ^111In—Cl was added to diluted CSF (0.125 or 0.5) or diluted serum protein (0.125 and 0.25) and incubated for 20 minutes. To determine the level of YCl3 protein binding, 0.2, 0.5, or 1 μCi of YCl3 was added to diluted CSF (0.063 or 0.5) or diluted serum protein (0.063 and 0.375), and incubated for 20 minutes. After incubation, free radiopharmaceuticals were separated from protein bound ^111In—Cl or YCl3 using Amicon Centrifree Micropartition filters in a single centrifugation step at 3000 g for 15 minutes according to manufacturer's instructions (Amicon, Beverly, Mass.). The percent binding of YCl3 or ^111In—Cl to the CSF or serum protein was then calculated. As shown in FIG. 6 and FIG. 7 respectively, both YCl3 and ^111In—Cl bind avidly to CSF and serum protein within the physiologic range (a dilution factor between 0.2 and 0.6) at all concentrations tested. At room temperature, both YCl3 and ^111In—Cl have greater than 95% binding to serum proteins. […]

In the next data set the test system is CSF proteins. Briefly: Binding to CSF proteins (Centrifree filter separation). The conditions noted are these: 0.2, 0.5 or 1 μCi added to diluted CSF, 20 minutes; physiologic range, all concentrations tested. In kind it is in vitro ADME, human (patients). The protocol: To test the hypothesis that local sequestration of ^111In—Cl is due to protein binding, both ^111In—Cl and YCl3 were tested for binding to CSF and serum proteins. Serum proteins were obtained from residual baseline serum and CSF proteins were obtained from patients participating in other research protocols who had consented to blood sampling. To determine the level of ^111In—Cl protein binding, 0.2, 0.5, or 1 μCi of ^111In—Cl was added to diluted CSF (0.125 or 0.5) or diluted serum protein (0.125 and 0.25) and incubated for 20 minutes. To determine the level of YCl3 protein binding, 0.2, 0.5, or 1 μCi of YCl3 was added to diluted CSF (0.063 or 0.5) or diluted serum protein (0.063 and 0.375), and incubated for 20 minutes. After incubation, free radiopharmaceuticals were separated from protein bound ^111In—Cl or YCl3 using Amicon Centrifree Micropartition filters in a single centrifugation step at 3000 g for 15 minutes according to manufacturer's instructions (Amicon, Beverly, Mass.). The percent binding of YCl3 or ^111In—Cl to the CSF or serum protein was then calculated. As shown in FIG. 6 and FIG. 7 respectively, both YCl3 and ^111In—Cl bind avidly to CSF and serum protein within the physiologic range (a dilution factor between 0.2 and 0.6) at all concentrations tested. At room temperature, both YCl3 and ^111In—Cl have greater than 95% binding to serum proteins.

Another data set concerns human cancer cell lines. The conditions noted are these: a number of human cancer cell lines; cited from earlier work.
The mark [7] stands for this setting: FIG. 4, in 0.5 ml saline, YCl3 0.5, 1.0, 2.0 mCi, ^111In—Cl 1.0, 4.0 mCi, FDG 1.0, 2.0, 3.0 mCi, ^67Ga—Fe 1.77 mCi.

Entries after “also recorded” stand apart in the source; their conditions may differ.

Turning to `O=CC[C@@H](O)[C@H](O)[C@H](O)CO` [2DG, 2-deoxy-D-glucose], the “enhancement of the effects of a radiopharmaceutical” value in data set [1] is recorded as “effective in enhancing the effects of a radiopharmaceutical”.
`OC[C@H]1OC(O)[C@H]([18F])[C@@H](O)[C@@H]1O` (stereo partly drawn) [FDG, F-18-2-deoxy-2-fluoro-D-glucose, reference compound]: in the data set with rat breast cancer, the induction of apoptosis result is “sufficient to induce apoptosis”. Also, the tumor growth result in [2] (setting [7]) is recorded as “YCl3 appeared to be the only radiopharmaceutical that significantly suppressed tumor growth”.
`O=C([O-])CC(O)(CC(=O)[O-])C(=O)[O-].[67Ga+3]` [^67Ga citrate, Gallium 67 citrate, reference compound]: the “retention time with free iron” value in data set [3] is “Increase in the retention time”. In addition, the “retention in the injection site” value in [3] (intramuscular injection, without free iron) is “comparatively short time”.
For the molecule `[Cl][Ga]([Cl])[Cl]` [^67Ga—Cl, Gallium 67 chloride], in data set [3], the “retention time with free iron” value is “Increase in the retention time”.
On to `[90Y]` [^90Y, Yttrium-90], for which the “injected amount present in the bones” value in data set [4] is 50%-80%. The “radiation toxicity in red bone marrow” value in data set [5] (by ICRP-30) is on record as 15-18 cGy/mCi. For the same molecule, the red marrow dose in [5] (derived from distribution of Yttrium-86 citrate in human PET studies (Herzog et al.)) is 4-6 cGy/mCi.
Consider `[Cl][111In]([Cl])[Cl]` [^111In—Cl, Indium-111 chloride], for which the “retention time with free iron” value in [3] is reported as “Increase in the retention time”. Besides, the “effect of free iron in the injectate on retention / local sequestration” value in data set [3] (intramuscular injection) is “does not appear to dramatically affect”; in [3] (intratumoral injection), “does appear to increase”. In addition, the “injected radiopharmaceutical remaining in the injection site” value in data set [3] (intramuscular, 0.4 and 0.8 mCi in 0.2 ml saline (both dose levels), after three days) is listed as “over 50%”. In [3] (intramuscular, acidic solution (pH 3.0) vs basic solution (pH 8.0), FIG. 9), the “effect of pH of the injectate on local sequestration” value is “does not appear to dramatically affect”. Also, the skeletal distribution result in [6] (estimated from the left femur (opposite to the injection site)) is “about 16%”. The “radiation uptake in the right thigh muscle” value in data set [6] (intramuscular injection in right thigh) is given as “high”. Also, the “radiation uptake in right femur versus contralateral organ” value in data set [6] (intramuscular injection in right thigh, decreasing over time to) came out at 3 times higher; in data set [6] (intramuscular injection in right thigh, initial), 6 times higher. In addition, the “human dosimetry estimate, kidney” value in [6] (intramuscular) is reported as 1.13 cGy/mCi; in data set [6] (intravenous), 10.4 cGy/mCi. Further, the “human dosimetry estimate, red marrow” value in [6] (intramuscular) is given as 0.55 cGy/mCi; in data set [6] (intravenous), 4.01 cGy/mCi. Besides, the “organs with the highest uptake” value in data set [6] (intravenous injection, 0.05 mCi in 0.1 ml saline) was “spleen, liver, and kidney”. Moreover, in the data set on serum proteins, the “binding to serum protein” value was “bind avidly”. Moreover, the “binding to CSF” value in the data set with CSF proteins is on record as “bind avidly”. The “tumor growth / tumor development” value in [2] is given as “not suppressed; also recorded: not reduced; also recorded: did not suppress tumor development”. In addition, the tumor growth entry in data set [2] (FIG. 3, in 0.2-0.3 ml saline, YCl3 0.3, 0.6, 1.5 mCi, ^111In—Cl 0.6, 1.2, 2.4, 4.8 mCi, ^67Ga 0.6 mCi) is given as “YCl3 appeared to be the only radiopharmaceutical that significantly suppressed tumor growth”; in data set [2] (setting [7]), “YCl3 appeared to be the only radiopharmaceutical that significantly suppressed tumor growth”; in data set [2] (FIG. 5, in 1.0 ml saline, ^111In—Cl 2.2 mCi, ^188Re EDTA 1.5 mCi with or without free iron) it was “strong tumor suppression”. For the same molecule, in data set [2] (injection volume increased from 0.2-0.3 ml and 0.5 ml to 1.0 ml, therapeutic dosage not increased), the “change in tumor suppression with injection volume” value is “dramatic increase in tumor suppression”.
In the case of `[O]=[188Re](=[O])(=[O])[O-]` [^188Re perrhenate, reference compound], the “clearance from the injection site” value in [3] (intratumoral injection, without free iron, FIG. 16) is recorded as “rapidly cleared”. In data set [3] (intratumoral injection), the “effect of free iron in the injectate on retention / local sequestration” value is recorded as “did not slow down the clearance”.
As for `[Cl][201Tl]` [^201Tl—Cl, Thallium-201 chloride, reference compound], in data set [3] (intratumoral injection), the “effect of free iron in the injectate on retention / local sequestration” value was “did not dramatically slow down clearance”. Further, the “tumor growth / tumor development” value in data set [2] is recorded as “not reduced”.
Rhodamine-123 [Rh-123]: in the data set on human cancer cell lines, the “toxicity to cancer cell lines” value was “selectively toxic”.
With “^111In DTPA [^111In-DTPA, reference compound]”, the “clearance after intramuscular injection” value in data set [3] (intramuscular) is on record as “rapidly cleared”; in data set [3] (intramuscular, listed as In-DTPA), “rapid clearance”.
